Literature values as cited in PMC11345841, “Exploring 2-Sulfonylpyrimidine Warheads as Acrylamide Surrogates for Targeted Covalent Inhibition: A BTK Story” (Journal of Medicinal Chemistry, 2024).
Where two headings read alike, the source gives them in different places.

Test system: 468 human kinases
Settings: cited from earlier work; for %Control: @1000nM, ref Buhimschi et al. 2018

Structure (SMILES): C=CC(=O)N1CCC[C@@H](n2nc(-c3ccc(Oc4ccccc4)cc3)c3c(N)ncnc32)C1 [Compound 1g, Ibrutinib, reference compound]
- number of kinases with ≥90 inhibition belonging to the TK family (including BTK) (1 μM): 36 kinases
- number of kinases with ≥90 inhibition out of 468 (1 μM): 39 kinases
- %Control (ABL1(E255K)-phosphorylated): 71%
- %Control (ABL1(F317I)-nonphosphorylated): 30%
- %Control (ABL1(F317L)-nonphosphorylated): 25%
- %Control (ABL1(F317L)-phosphorylated): 49%
- %Control (ABL1(H396P)-nonphosphorylated): 18%
- %Control (ABL1(Q252H)-nonphosphorylated): 6.4%
- %Control (ABL1(Q252H)-phosphorylated): 67%
- %Control (ABL1(T315I)-nonphosphorylated): 100%
- %Control (ABL1-nonphosphorylated): 9%
- %Control (ABL1-phosphorylated): 69%
- %Control (ABL2): 43%
- %Control (ALK(C1156Y)): 91%
- %Control (ALK(L1196M)): 96%
- %Control (BMX): 38%
- %Control (BRK): 1.4%
- %Control (BTK): 0%
- %Control (CSK): 2.4%
- %Control (DDR2): 100%
- %Control (EGFR(E746-A750del)): 5.1%
- %Control (EGFR(G719C)): 0.35%
- %Control (EGFR(G719S)): 0.45%
- %Control (EGFR(L747-E749del, A750P)): 0.3%
- %Control (EGFR(L747-S752del, P753S)): 12%
- %Control (EGFR(L747-T751del,Sins)): 1.4%
- %Control (EGFR(L858R)): 1.4%
- %Control (EGFR(L858R,T790M)): 6.9%
- %Control (EGFR(L861Q)): 0.1%
- %Control (EGFR(S752-I759del)): 0%
- %Control (EGFR(T790M)): 0.15%
- %Control (EGFR): 0%
- %Control (EPHA2): 96%
- %Control (EPHA5): 100%
- %Control (EPHA7): 100%
- %Control (EPHA8): 78%
- %Control (EPHB2): 100%
- %Control (EPHB3): 89%
- %Control (EPHB4): 100%
- %Control (EPHB6): 8.6%
- %Control (ERBB2): 0%
- %Control (ERBB3): 0%
- %Control (FAK): 93%
- %Control (FER): 95%
- %Control (FES): 100%
- %Control (FGFR1): 42%
- %Control (FGFR2): 42%
- %Control (FGFR3(G697C)): 35%
- %Control (FGFR3): 45%
- %Control (FGFR4): 100%
- %Control (FGR): 10%
- %Control (FLT3(D835H)): 18%
- %Control (FLT3(D835V)): 1.9%
- %Control (FLT3(D835Y)): 44%
- %Control (FLT3(K663Q)): 38%
- %Control (FLT3(N841I)): 31%
- %Control (FLT3(R834Q)): 54%
- %Control (FLT3-autoinhibited): 94%
- %Control (FLT3): 26%
- %Control (FLT4): 38%
- %Control (FRK): 11%
- %Control (FYN): 5.3%
- %Control (HCK): 0.3%
- %Control (IGF1R): 100%
- %Control (INSR): 87%
- %Control (INSRR): 96%
- %Control (ITK): 6.8%
- %Control (JAK1(JH1domain-catalytic)): 100%
- %Control (JAK1(JH2domain-pseudokinase)): 91%
- %Control (JAK2(JH1domain-catalytic)): 87%
- %Control (JAK3(JH1domain-catalytic)): 0%
- %Control (KIT(A829P)): 21%
- %Control (KIT(D816H)): 78%
- %Control (KIT(L576P)): 42%
- %Control (KIT(V559D)): 31%
- %Control (KIT(V559D,T670I)): 94%
- %Control (KIT(V559D,V654A)): 91%
- %Control (KIT): 57%
- %Control (LCK): 0.2%
- %Control (LYN): 9.5%
- %Control (MERTK): 74%
- %Control (MET(M1250T)): 56%
- %Control (MET(Y1235D)): 87%
- %Control (PDGFRA): 48%
- %Control (PDGFRB): 35%
- %Control (RET(M918T)): 14%
- %Control (RET(V804M)): 72%
- %Control (RET): 9.3%
- %Control (ROS1): 97%
- %Control (SRC): 3.2%
- %Control (SYK): 91%
- %Control (TEC): 1.9%
- %Control (TIE1): 61%
- %Control (TIE2): 58%
- %Control (TNK1): 23%
- %Control (TNK2): 35%
- %Control (TRKB): 82%
- %Control (TXK): 3.8%
- %Control (TYK2(JH1domain-catalytic)): 89%
- %Control (TYRO3): 96%
- %Control (YES): 2.6%
